According to patent US20140350078A1, “CONTROLLING REGULATORY T CELL FUNCTION” (NEW YORK UNIVERSITY, priority 2011, published 2014):

Experiments:
[1] = test system: Treg suppressive function; assay: In vitro suppression assay (Tregs co-cultured with CD4+CD25- T cells at 1:3); format: cell-based, human; details: pre-treatment of Treg at 1 μM for 30 minutes, supernatants after 48 hours
Procedure: In Vitro Suppression Assays—CD4^+CD25^+ T cells were treated or not, washed, and added at a ratio of 1:3 ([…]) to CD4^+CD25^− T cells at final concentration of 2×10^6 per mL (cytokine secretion) or 2×10^5 per mL (proliferation). The cells were co-cultured on anti-CD3 mAb (5 μg/mL) pre-coated 24-well plates for 24-48 hours (cytokine secretion) or 96 hours (proliferation). Human TNF-α (210-TA) was purchased from R&D Systems and added to co-cultures where indicated. […] Cytokine secretion was determined by ELISA as described (Zanin-Zhorov et al., “Protein Kinase C-Theta Mediates Negative Feedback on Regulatory T Cell Function,” Science 328:372-376 (2010), which is hereby incorporated by reference in its entirety), using human IFN-γ Cytoset (Biosource) and IL-17 and -4 (Invitrogen). Proliferation was assessed by carboxyfluorescein diacetate succinimidyl ester (CFSE) dilution as described (Tran et al., “Analysis of Adhesion Molecules, Target Cells, and Role of IL-2 in Human FOXP3+ Regulatory T Cell Suppressor Function,” J. Immunol. 182:2929-2938 (2009), which is hereby incorporated by reference in its entirety).

Foxp3 = details: literature (Valencia et al.; Zanin-Zhorov et al.); cited from earlier work
[2] = test system: Dlgh1 recruitment to the IS in Tregs; assay: Dlgh1 recruitment to the immunological synapse on planar lipid bilayers, imaged by TIRFM; format: cell-based, human; details: Tregs from healthy donors, 50 ng/mL overnight
Procedure: Planar lipid bilayers containing anti-CD3 antibodies (5 μg/mL) and ICAM-1 (250 molecules per mm^2) were prepared in parallel-plate flow cells as described (Zanin-Zhorov et al., “Protein Kinase C-Theta Mediates Negative Feedback on Regulatory T Cell Function,” Science 328:372-376 (2010), which is hereby incorporated by reference in its entirety). The flow cell containing the bilayers was warmed up to 37° C.; cells were injected in 500 μL of Hepes-buffered saline containing 1% human serum albumin; and images were collected on a custom automated Nikon inverted fluorescence microscope.
All TIRF imaging was performed on the custom automated Nikon inverted fluorescence microscope using the 100×/1.45 N.A. TIRF objective from Nikon. […]
The pro-inflammatory mediator TNF-α inhibits suppressive activity and down-regulates Foxp3 in human Treg (Valencia et al., “TNF Downmodulates the Function of Human CD4+CD25hi T-Regulatory Cells,” Blood 108(1):253-261 (2006); Zanin-Zhorov et al., “Protein Kinase C-Theta Mediates Negative Feedback on Regulatory T Cell Function,” Science 328(5976):372-376 (2010), both of which are hereby incorporated by reference in their entirety). To investigate whether Dlgh1 recruitment to IS correlates with suppressive function of Treg, Treg was incubated with TNF-α overnight and then analyzed Dlgh1 recruitment to the IS as described above. […]

[3] = test system: Treg suppressive function; details: literature (Valencia et al.; Zanin-Zhorov et al.); cited from earlier work

| Compound | ability of Treg to suppress IFN-γ secretion from CD4+CD25- T cells [1] | Foxp3 in human Treg (Foxp3) | levels of Dlgh1 at IS in Tregs [2] | suppressive activity of human Treg [3] |
| --- | --- | --- | --- | --- |
| C[S+]([O-])c1ccc(-c2nc(-c3ccncc3)c(-c3ccc(F)cc3)[nH]2)cc1 (stereo not shown) [SB203580] | significantly down-regulated |  |  |  |
| TNF-α |  | down-regulates | significantly reduced | inhibits |
